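These data come from cells grown in 96-well plates and exposed to compound for 48 hours at five concentrations. TGI: total growth inhibition.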
Experiments:
Assay in all cases: growth of human tumour cells (NCI), 48 h
[1] = tested on: DMS 114 small cell lung
[2] = tested on: RXF-631 renal
[3] = tested on: UACC-62 melanoma
[4] = tested on: KM12 colon
[5] = tested on: NCI-H460 lung
[6] = tested on: LOX IMVI melanoma
[7] = tested on: SK-OV-3 ovarian
[8] = tested on: OVCAR-5 ovarian
[9] = tested on: EKVX NSCLC
[10] = tested on: SN12C renal
[11] = tested on: TK-10 renal
[12] = tested on: ACHN renal
[13] = tested on: NCI-H23 lung
[14] = tested on: U251 CNS
[15] = tested on: SW-620 colon
[16] = tested on: CCRF-CEM leukemia
[17] = tested on: HOP-62 NSCLC
[18] = tested on: A549 NSCLC
[19] = tested on: MOLT-4 leukemia
[20] = tested on: M19-MEL melanoma
[21] = tested on: SF-268 CNS
[22] = tested on: SF-295 CNS
[23] = tested on: SNB-78 CNS
[24] = tested on: HT29 colon
[25] = tested on: SNB-75 CNS
[26] = tested on: UACC-257 melanoma
[27] = tested on: SNB-19 CNS
[28] = tested on: CAKI-1 renal
[29] = tested on: KM20L2 colon
[30] = tested on: A498 renal
[31] = tested on: HL-60(TB) leukemia
[32] = tested on: SK-MEL-5 melanoma
[33] = tested on: OVCAR-4 ovarian
[34] = tested on: HCT-15 colon
[35] = tested on: DLD-1 colon
[36] = tested on: K-562 leukemia
[37] = tested on: RXF 393 renal
[38] = tested on: SF-539 CNS
[39] = tested on: SK-MEL-28 melanoma
[40] = tested on: HOP-92 NSCLC
[41] = tested on: MALME-3M melanoma
[42] = tested on: COLO 205 colon
[43] = tested on: LXFL 529 NSCLC
[44] = tested on: NCI-H226 lung
[45] = tested on: OVCAR-3 ovarian
[46] = tested on: HOP-18 NSCLC
[47] = tested on: HCT-116 colon
[48] = tested on: UO-31 renal
[49] = tested on: OVCAR-8 ovarian
[50] = tested on: IGROV1 ovarian
[51] = tested on: NCI-H522 lung
[52] = tested on: M14 melanoma
[53] = tested on: 786-0 renal
[54] = tested on: DMS 273 small cell lung
[55] = tested on: SR leukemia
[56] = tested on: SK-MEL-2 melanoma

Measured: TGI

COC(=O)CCc1cccnc1/C=N/O
> 100 µM: [1] | [2] | [3] | [4] | [5] | [6] | [7] | [8] | [9] | [10] | [11] | [12] | [13] | [14] | [15] | [16] | [17] | [18] | [19] | [20] | [21] | [22] | [23] | [24] | [25] | [26] | [27] | [28] | [29] | [30] | [31] | [32] | [33] | [34] | [35] | [36] | [37] | [38] | [39] | [40] | [41] | [42] | [43] | [44] | [45] | [46] | [47] | [48] | [49] | [50] | [51] | [52] | [53] | [54] | [55] | [56]

Reference: PubChem BioAssay (NCI)
